The structures appear in SMILES notation.

We go through one compound from patent publication US12685733B2, “Indole molecules and use thereof in the inhibition of DNA polymerases” (BioVentures, LLC, priority 2019, dated 2026).

One test has as its target T1, hpol η (Homo sapiens, UniProt Q9Y253).
T1 construct: hpol η (residues 1-437); made in house
T1 sequence (Q9Y253 1-437): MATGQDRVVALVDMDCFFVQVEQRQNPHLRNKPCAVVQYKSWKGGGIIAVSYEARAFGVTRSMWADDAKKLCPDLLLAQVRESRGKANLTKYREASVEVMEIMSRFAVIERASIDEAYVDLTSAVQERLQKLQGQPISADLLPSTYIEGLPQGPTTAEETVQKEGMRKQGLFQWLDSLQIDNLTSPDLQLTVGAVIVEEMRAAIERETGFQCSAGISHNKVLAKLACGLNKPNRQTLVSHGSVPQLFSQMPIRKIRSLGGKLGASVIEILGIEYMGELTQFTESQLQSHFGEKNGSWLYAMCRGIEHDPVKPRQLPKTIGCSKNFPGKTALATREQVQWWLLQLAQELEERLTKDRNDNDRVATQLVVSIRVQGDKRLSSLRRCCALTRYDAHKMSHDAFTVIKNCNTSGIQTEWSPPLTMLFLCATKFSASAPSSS
Nature of the test: Gel-based primer extension assay. It is filed as biochemical. The settings on record: 10 μM; 2 nM hpol η.

In test [1] the test system is hpol κ-deficient HAP-1 cells. Nature of the test: supF mutagenesis assay. The settings on record: 1 μM IAG-10, 24 h.
Method: (§4) HAP-1 hpol κ-proficient and hpol κ-deficient cells were cultured in 10 cm dishes to ~80% confluency in Iscove's modified Dulbecco's medium (Invitrogen) containing 10% (v/v) FBS supplemented with Ix antibiotic antimycotic solution (Sigma). They were transfected with unmodified (control) and methylmethanesulfonate (MMS)-modified pSP189 plasmid harboring the supF gene either in the absence or presence of 1 μM IAG-10. For plasmid modification with MMS, the pSP189 plasmid was first incubated with 100 mM MMS in 10 mM HEPES buffer (pH 7.5) containing 50 mM KCl, 5 mM MgCl2, and 1 mM dithiothreitol at RT for 1 h. The MMS-modified plasmid was then purified by ethanol precipitation and used in subsequent transfections, similar to the unmodified plasmid. […] The recovered plasmids (75-100 ng) were then transformed into E. coli MBM7070 strain by electroporation, and the transformed bacterial cells were plated on LB-agar plates containing 100 μg/mL ampicillin, 1 mM isopropyl-I-thio-fi-Dgalactopyranoside (IPTG) and 100 μg/mL X-gaL The resulting blue (nonmutated) and white (mutated) colonies were counted. The mutation frequency was calculated as the ratio of mutant (white) colonies to total (blue+white) colonies. At least 10 000 colonies were counted for each condition, and the results reported represent the mean (±SD) of experiments performed in biological triplicate.
Test [2] deals with hpol κ-proficient HAP-1 cells. Nature of the test: Clonogenic survival assay. It is filed as cell-based, human. Here is the method:
(§1) HAP-1 and hpol κ^KO cells were purchased from Horizons Discovery Group LLC (Cambridge, UK). The company generated the Hap1 cells using CRISPR-Cas9 technology and the elimination of kappa expression was confirmed by Sanger sequence genome editing. We further confirmed the elimination of hpol κ protein expression by Western blotting (data not shown). Hap1 cells were cultured in Iscove's modified Dulbecco's medium (IMDM; Invitrogen, CA, USA) supplemented with 10% (v/v) fetal bovine serum (FBS; Atlas Biologicals, CO, USA) and 1% (v/v) antibiotic/antimycotic solution (Sigma-Aldrich, MO, USA).T98G cells were purchased from ATCC (American Type Culture Collection, VA, USA). T98G cells were cultured in MEM (Minimum Essential Medium) (Invitrogen, CA, USA) supplemented with 10% (v/v) FBS (Fetal Bovine Serum, Atlas Biologicals, CO, USA) and antibiotic/antimycotic solution (1%, v/v) (Sigma-Aldrich, MO, USA). NT2 cells were kindly provided by Dr. Michael Borrelli (University of Arkansas for Medical Sciences, AR, USA). NT2 cells were cultured in DMEM/F12 (Dulbecco's Modified Eagle Medium) supplemented with 10% (v/v) FCS (Fetal Calf Serum) and antibiotic/antimycotic solution (1%) (Sigma-Aldrich, MO, USA).
(§2) To measure the clonogenic ability, cells were plated (500 cells per well) in 6-well dishes. In the case of HAP-1 cells, cells were treated the following day after plating, with temozolomide (TMZ) (0, 1, 5, 50, 125 and 250 μM) alone or in combination with UAMS-48 (0.1 and 0.5 μM) for 1 hour. In the case of T98G and NT2 cells, treatment was done on the following day of plating, with increasing concentrations of TMZ alone or in combination with UAMS-48 (50 nM) for 3 hrs. T98G and NT2 cells were treated with increasing concentrations of UAMS-48 for 3 hrs. After treatment, cells were cultured in fresh IMDM supplemented with 10% FBS for 10 days. The colonies were gently washed with 1×PBS, fixed with 3.7% (v/v) formaldehyde for 20 mins at RT and stained with crystal violet solution (Sigma-Aldrich, MO, USA) for 30 mins at RT.
(§3) The fixed crystal-violet stained colonies in each 6-well plate were examined under an EVOS XL Core imaging system (Thermo Fisher Scientific) under bright-field, and the colonies were inspected manually. […] Color images of each 6-well plate were captured and opened for processing using the Fiji version of the freely available software ImageJ. Setting the appropriate threshold for counting colonies for each cell type, corresponding to the respective radii calculated previously, the colonies were counted using the Colony Area plugin of ImageJ. Manual counting was performed on a few wells picked randomly, and the colony count so obtained was tallied with the number obtained using ImageJ, to ensure they matched reasonably. All experiments were performed in triplicate, and the colony number for each well was expressed as the mean (±standard deviation). The results were plotted to generate a dose response curve for TMZ treatment using the software Graphpad Prism, where the mean number of colonies was plotted along the Y-axis, and the TMZ concentration along the X-axis. Bar charts comparing the mean number of colonies as a function of the various conditions were also plotted for both cell types. Combination index values were calculated using the Chou-Talalay method (Chou 2010).

Test [3] has as its system hpol κ-deficient HAP-1 cells. Nature of the test: Clonogenic survival assay. It is filed as cell-based, human. Here is the method:
as §1, §2, §3

A further test deals with MCF7 cells. Nature of the test: BrdU ssDNA / propidium iodide flow cytometry. It is filed as cell-based. The settings on record: PNR-7-48 0.5 μM + Mirin 100 μM, 48 hours. Here is the method: MCF7 cells were plated in 60 mm dishes at a confluency of 300,000 cells per dish and incubated overnight. Cells were treated the next day with BrdU (10 μM). The compounds were diluted in DMSO and added to the media at a final concentration of PNR-7-48 (0.5 μM) and Mirin (100 μM). The final concentration of DMSO was 0.1% (v/v). After 48 hours of treatment, media was removed and cells were washed in 1×PBS and trypsinized. Cells were then resuspended in media and centrifuged at 1500 rpm (calculate relative centrifugal force, RCF) for 5 minutes. The supernatant was removed, and again cells were washed and centrifuged. The supernatant was discarded and cells were resuspended in ice-cold 70% (v/v) ethanol prepared in 1×PBS while being vortexed. After overnight fixing at 4° C., cells were vortexed and centrifuged at 3000 rpm (RCF) for 10 minutes. Ethanol was removed leaving residual amounts for cell resuspension by vortexing. Fixed cells were stained with fluorescent anti-BrdU antibodies (FITC mouse anti-BrdU kit; 556028; BD) without prior acid treatment to detect only ssDNA. To confirm that the experimental cells had incorporated BrdU, aliquots of all nuclei were also denatured using HCL and then neutralized with sodium borate before staining with the anti-BrdU antibody. […] Samples were analyzed using the BD FACSCalibur Flow Cytometer in the UAMS Flow Cytometry Core. […]
(A flow cytometer gives signals particle by particle.)

Test [4] relates to hpol κ-proficient HAP-1 cells. Nature of the test: supF mutagenesis assay. The settings on record: 1 μM IAG-10, 24 h.
Method: as §4

On to `Cl.[H]/N=C(\N)NN=Cc1cn(C(=O)c2cccc3ccccc23)c2ccc(Cl)cc12` [IAG-10, (E)-2-((1-(1-naphthoyl)-5-chloro-1H-indol-3-y1)methylene)hydrazine-1-carboximidamide hydrochloride], for which, on hpol η, the “polymerase activity relative to DMSO control” value is “only hpol κ was inhibited”. Moreover, the “mutation frequency for control or MMS-damaged DNA” value in test [1] is “did not alter the mutation frequency”. Besides, in test [2] (0.5 μM IAG-10), the “colony formation, compound alone” value is given as “does not impair colony formation”. Further, the “colonies formed relative to untreated cells” value in test [2] (250 μM TMZ + 0.5 μM IAG-10 co-treatment, 1 hour) is ~ 40%. Also, the “colony formation, compound alone” value in test [3] (0.5 μM IAG-10) is reported as “does not impair colony formation”. The “colony forming ability, co-treatment over TMZ alone” value in test [3] (TMZ + 0.5 μM IAG-10) is listed as “did not show any significant reduction in colony forming ability”. In addition, in the test with MCF7 cells, the “cell death (sub-G1 cells)” value is “increases” and the “ssDNA gap formation (BrdU+ cells)” value is reported as “increases”. Further, the “mutation frequency for the undamaged plasmid” value in test [4] is “did not change the mutation frequency”. The “mutation frequency for MMS-damaged DNA over the undamaged control plasmid” value in test [4] (MMS-damaged pSP189) was “approximately twofold”.
